According to paper PMC4684791 (Bioorganic & medicinal chemistry letters, 2015):

Assay: Microsomal stability assay
Format: in vitro ADME, rat

Stability κ (decay constant, slope of log concentration vs time profile) (rat liver microsome, t1/2=ln2/κ): 0.116 min^−1
half-life (rat, liver microsomes): 5.99 min
SMILES: COc1cc(NC(=O)c2ccccn2)ccc1Cl [Compound 2, ML128]
